Tests used:
Type in all cases: in vivo
[1] = system: Chilo suppressalis (Striped Rice Stemborer); experiment: Example B4: Chilo suppressalis (Striped Rice Stemborer), artificial diet; settings: 144 h, application rate of 200 ppm, L2 larvae, 6 days after infestation, read-out: control in at least one of the three categories (mortality, anti-feedant or growth inhibition)
Method: Example B4: Chilo suppressalis (Striped Rice Stemborer)
24-well microtiter plates with artificial diet were treated with aqueous test solutions prepared from 10′000 ppm DMSO stock solutions by pipetting. After drying, the plates were infested with L2 larvae (6-8 per well). The samples were assessed for mortality, anti-feeding effect, and growth inhibition in comparison to untreated samples 6 days after infestation. Control of Chilo suppressalis by a test sample is given when at least one of the categories mortality, anti-feedant effect, and growth inhibition is higher than the untreated sample.

[2] = system: Spodoptera littoralis (Egyptian Cotton Leaf Worm); experiment: Example B9: Spodoptera littoralis (Egyptian Cotton Leaf Worm), sprayed cotton leaf discs; settings: foliar, 72 h, application rate of 200 ppm, L1 larvae, 3 days after infestation, read-out: control in at least one of the three categories (mortality, anti-feedant or growth inhibition)
[3] = system: Diabrotica balteata (Corn Root Worm); experiment: Example B1: Diabrotica balteata (Corn Root Worm), sprayed maize sprouts; settings: 96 h, application rate of 200 ppm, L2 larvae, 4 days after infestation, read-out: control in at least one of the two categories (mortality or growth inhibition)
Method: Example B1: Diabrotica balteata (Corn Root Worm)
Maize sprouts placed onto an agar layer in 24-well microtiter plates were treated with aqueous test solutions prepared from 10′000 ppm DMSO stock solutions by spraying. After drying, the plates were infested with L2 larvae (6 to 10 per well). The samples were assessed for mortality and growth inhibition in comparison to untreated samples 4 days after infestation.

[4] = system: Plutella xylostella (Diamond Back Moth); experiment: Example B5: Plutella xylostella (Diamond Back Moth), artificial diet, 24-well; settings: 192 h, application rate of 200 ppm, eggs, 8 days after infestation, read-out: control in at least one of the two categories (mortality or growth inhibition)
Method: Example B5: Plutella xylostella (Diamond Back Moth)
24-well microtiter plates with artificial diet were treated with aqueous test solutions prepared from 10′000 ppm DMSO stock solutions by pipetting. After drying, Plutella eggs were pipetted through a plastic stencil onto a gel blotting paper and the plate was closed with it. The samples were assessed for mortality and growth inhibition in comparison to untreated samples 8 days after infestation.

CC(NC(=O)c1cc(C(F)(F)F)cc(C(C)(C)C#N)c1)c1nccnc1-c1ccc(OC(F)F)cn1 (centres unmarked) [P13, 3-(1-cyano-1-methyl-ethyl)-N-[1-[3-[5-(difluoromethoxy)-2-pyridyl]pyrazin-2-yl]ethyl]-5-(trifluoromethyl)benzamide]
≥ 80%: percent control (mortality, anti-feedant effect or growth inhibition) at 200 ppm [1] | percent control (mortality, anti-feedant effect or growth inhibition) at 200 ppm [2] | percent control (mortality or growth inhibition) at 200 ppm [3] | percent control (mortality or growth inhibition) at 200 ppm [4]

CC(NC(=O)c1cc(C(F)(F)F)cc(C(F)(F)C2CC2)c1)c1nccnc1-c1ncc(OCC(F)(F)F)cn1 (centres unmarked) [P4, 3-[cyclopropyl(difluoro)methyl]-N-[1-[3-[5-(2,2,2-trifluoroethoxy)pyrimidin-2-yl]pyrazin-2-yl]ethyl]-5-(trifluoromethyl)benzamide]
≥ 80%: percent control (mortality, anti-feedant effect or growth inhibition) at 200 ppm [1] | percent control (mortality, anti-feedant effect or growth inhibition) at 200 ppm [2] | percent control (mortality or growth inhibition) at 200 ppm [3] | percent control (mortality or growth inhibition) at 200 ppm [4]

CC(NC(=O)c1cc(C2CC2)cc(C(F)(F)F)c1)c1nccnc1-c1ncc(OCC(F)(F)F)cn1 (centres unmarked) [P6, 3-cyclopropyl-N-[1-[3-[5-(2,2,2-trifluoroethoxy)pyrimidin-2-yl]pyrazin-2-yl]ethyl]-5-(trifluoromethyl)benzamide]
≥ 80%: percent control (mortality, anti-feedant effect or growth inhibition) at 200 ppm [1] | percent control (mortality, anti-feedant effect or growth inhibition) at 200 ppm [2] | percent control (mortality or growth inhibition) at 200 ppm [3] | percent control (mortality or growth inhibition) at 200 ppm [4]

C[C@@H](c1nccnc1-c1ccc(C#N)cn1)N(CC1CC1)C(=O)c1cc(C(F)(F)F)cc(C(F)(F)C2CC2)c1 [P43, N-[(1S)-1-[3-(5-cyano-2-pyridyl)pyrazin-2-yl]ethyl]-3-[cyclopropyl(difluoro)methyl]-N-(cyclopropylmethyl)-5-(trifluoromethyl)benzamide]
≥ 80%: percent control (mortality, anti-feedant effect or growth inhibition) at 200 ppm [1] | percent control (mortality, anti-feedant effect or growth inhibition) at 200 ppm [2] | percent control (mortality or growth inhibition) at 200 ppm [3] | percent control (mortality or growth inhibition) at 200 ppm [4]

COC1(c2cc(C(=O)NC(C)c3nccnc3-c3ccc(C#N)cn3)cc(C(F)(F)F)c2)CC1 (centres unmarked) [P46, N-[1-[3-(5-cyano-2-pyridyl)pyra-zin-2-yl]ethyl]-3-(1-methoxycyclopropyl)-5-(trifluoromethyl)benzamide]
≥ 80%: percent control (mortality, anti-feedant effect or growth inhibition) at 200 ppm [1] | percent control (mortality, anti-feedant effect or growth inhibition) at 200 ppm [2] | percent control (mortality or growth inhibition) at 200 ppm [3] | percent control (mortality or growth inhibition) at 200 ppm [4]

CC(NC(=O)c1cc(C2CC2)nc(C(F)(F)F)c1)c1nccnc1-c1ncc(OCC(F)F)cn1 (centres unmarked) [P35, 2-cyclopropyl-N-[1-[3-[5-(2,2-difluoroethoxy)pyrimidin-2-yl]pyrazin-2-yl]ethyl]-6-(trifluoromethyl)pyridine-4-carboxamide]
≥ 80%: percent control (mortality, anti-feedant effect or growth inhibition) at 200 ppm [1] | percent control (mortality, anti-feedant effect or growth inhibition) at 200 ppm [2] | percent control (mortality or growth inhibition) at 200 ppm [4]

CC(NC(=O)c1cc(C2CC2)nc(C(F)(F)F)c1)c1nccnc1-c1ccc(C#N)cn1 (centres unmarked) [P17, N-[1-[3-(5-cyano-2-pyridyl)pyra-zin-2-yl]ethyl]-2-cyclopropyl-6-(trifluoromethyl)pyridine-4-carboxamide]
≥ 80%: percent control (mortality, anti-feedant effect or growth inhibition) at 200 ppm [1] | percent control (mortality, anti-feedant effect or growth inhibition) at 200 ppm [2] | percent control (mortality or growth inhibition) at 200 ppm [4]
